Values belong to the compound of their own block, whether it stands above or below them.
What was measured:
Alpha glucosidase [1] = biological target: T1, Alpha glucosidase (Homo sapiens, UniProt O43451+P10253+P14410+Q2M2H8); test: Inhibition of alpha-glucosidase (unknown origin) using p-nitrophenyl-alpha-d-glucopyranoside as substrate preincubated for 10 mins followed by substrate addition measured after 20 mins; assay type: protein assay
[2] = Inhibition of yeast alpha-glucosidase using p-nitrophenyl-alpha-d-glucopyranoside as substrate preincubated for 15 mins followed by substrate addition measured after 30 mins; set-up: species or system Saccharomyces cerevisiae
[3] = Inhibition of yeast alpha-glucosidase using p-nitrophenyl-alpha-d-glucopyranoside as substrate preincubated with enzyme followed by substrate addition measured after 30 mins; set-up: species or system Saccharomyces cerevisiae
[4] = Inhibition of yeast alpha-glucosidase using p-nitrophenyl-alpha-d-glucopyranoside as substrate preincubated for 15 mins followed by substrate addition measured after 20 mins; set-up: species or system Saccharomyces cerevisiae
Alpha glucosidase [5] = biological target: T1, Alpha glucosidase; test: Inhibition of alpha-glucosidase (unknown origin) using p-nitrophenyl-alpha-d-glucopyranoside as substrate preincubated for 5 mins followed by substrate addition measured after 30 mins; assay type: protein assay
MDA-MB-231 = test: Cytotoxicity against human MDA-MB-231 cells assessed as reduction in cell viability at 100 uM relative to control; assay type: functional, cell-based
Alpha glucosidase [6] = biological target: T1, Alpha glucosidase; test: Inhibition of alpha-glucosidase (unknown origin) using p-nitro phenyl glucopyranoside as substrate preincubated for 10 mins followed by substrate addition measured after 10 mins; assay type: protein assay

IC50 (Alpha glucosidase [1]): 20 to 180 µM
Structure (SMILES): Nc1c(C(c2cccc(Cl)c2)c2c(N)c3ccccc3oc2=O)c(=O)oc2ccccc12

IC50 [3]: 2.1 to 289 µM
Structure (SMILES): CC1=NN(c2ccc(C)cc2)C(=O)/C1=C/c1cn(-c2ccccc2)nc1-c1cc2ccccc2oc1=O

IC50 (Alpha glucosidase [5]): > 100 µM
Structure (SMILES): Cc1ccc(C)c(N2C(=O)/C(=C/c3ccc(F)cc3)S/C2=N\NC(=O)c2cc3ccccc3oc2=O)c1
Activity (MDA-MB-231): >=76%

IC50 (Alpha glucosidase [6]): 0.55 to 35 µM
Structure (SMILES): Cc1nccn1-c1ccc(/C=C2/SC(=O)NC2=O)cc1

IC50 (Alpha glucosidase [5]): > 100 µM
Structure (SMILES): Cc1cccc(N2C(=O)/C(=C/c3ccc(F)cc3)S/C2=N\NC(=O)c2cc3ccccc3oc2=O)c1C
Activity (MDA-MB-231): >=76%

IC50 (Alpha glucosidase [6]): 0.55 to 35 µM
Structure (SMILES): O=C1NC(=O)/C(=C\c2ccc(-n3cnc4ccccc43)cc2)S1

IC50 [3]: 2.1 to 289 µM
Structure (SMILES): CC1=NN(c2ccc([N+](=O)[O-])cc2)C(=O)/C1=C/c1cn(-c2ccccc2)nc1-c1ccc(-c2ccccc2)cc1

IC50 (Alpha glucosidase [6]): 0.55 to 35 µM
Structure (SMILES): O=C1NC(=O)/C(=C\c2ccc(-n3ncc4ccccc43)cc2)S1

IC50 (Alpha glucosidase [1]): 20 to 180 µM
Structure (SMILES): Nc1c(C(c2cccc(F)c2)c2c(N)c3ccccc3oc2=O)c(=O)oc2ccccc12

IC50 [3]: 2.1 to 289 µM
Structure (SMILES): CC1=NN(c2ccc(C)cc2)C(=O)/C1=C/c1cn(-c2ccccc2)nc1-c1cc2cc(Br)ccc2oc1=O

IC50 (Alpha glucosidase [1]): 20 to 180 µM
Structure (SMILES): Nc1c(C(c2cccc(Br)c2)c2c(N)c3ccccc3oc2=O)c(=O)oc2ccccc12

IC50 (Alpha glucosidase [1]): 20 to 180 µM
Structure (SMILES): COc1cc(C(c2c(N)c3ccccc3oc2=O)c2c(N)c3ccccc3oc2=O)cc(Br)c1O

IC50 (Alpha glucosidase [6]): 0.55 to 35 µM
Structure (SMILES): O=C1NC(=O)/C(=C\c2ccc(-n3ccc4c(Br)ccnc43)cc2)S1

IC50 (Alpha glucosidase [1]): 20 to 180 µM
Structure (SMILES): COc1cc(C(c2c(N)c3ccccc3oc2=O)c2c(N)c3ccccc3oc2=O)cc(Cl)c1O

IC50 (Alpha glucosidase [6]): 0.55 to 35 µM
Structure (SMILES): O=C1NC(=O)/C(=C\c2ccc(-n3ccc4c(Nc5ccccc5OC(F)(F)F)ccnc43)cc2)S1

IC50 (Alpha glucosidase [5]): 0.09 to 1.6 µM
Structure (SMILES): Cc1cccc(C)c1N1C(=O)/C(=C/c2ccc(F)cc2)S/C1=N\NC(=O)c1cc2ccccc2oc1=O
Activity (MDA-MB-231): >=76%

IC50 (Alpha glucosidase [6]): 0.55 to 35 µM
Structure (SMILES): O=C1NC(=O)/C(=C\c2ccc(-n3cc([N+](=O)[O-])cn3)cc2)S1

IC50 (Alpha glucosidase [5]): 0.09 to 1.6 µM
Structure (SMILES): Cc1ccccc1N1C(=O)/C(=C/c2ccc(F)cc2)S/C1=N\NC(=O)c1cc2ccccc2oc1=O
Activity (MDA-MB-231): >=76%

IC50 (Alpha glucosidase [1]): 20 to 180 µM
Structure (SMILES): Nc1c(C(c2ccc([N+](=O)[O-])cc2)c2c(N)c3ccccc3oc2=O)c(=O)oc2ccccc12

IC50 (Alpha glucosidase [1]): 20 to 180 µM
Structure (SMILES): Nc1c(C(c2ccccc2)c2c(N)c3ccccc3oc2=O)c(=O)oc2ccccc12

IC50 (Alpha glucosidase [5]): 0.09 to 1.6 µM
Structure (SMILES): O=C(N/N=C1\S/C(=C\c2ccc(F)cc2)C(=O)N1c1ccc(Cl)cc1)c1cc2ccccc2oc1=O
Activity (MDA-MB-231): >=76%

IC50 (Alpha glucosidase [1]): 20 to 180 µM
Structure (SMILES): COc1cccc(C(c2c(N)c3ccccc3oc2=O)c2c(N)c3ccccc3oc2=O)c1

The next lines start with the compound.

Structure (SMILES): COc1cc(C2C(C#N)=C(N)Oc3n[nH]c(C)c32)ccc1OCc1ccccc1 (centres undefined)
IC50 [2]: 60 to 180 µM

Structure (SMILES): CN1CCN(c2ccc3[nH]c(-c4ccc(O)cc4)nc3c2)CC1
IC50 [4]: 2.2 µM

Structure (SMILES): Cc1n[nH]c2c1C(c1ccc([N+](=O)[O-])cc1)C(C#N)=C(N)O2 (centres undefined)
IC50 [2]: 54 µM

Structure (SMILES): COc1cc(-c2nc3ccc(N4CCN(C)CC4)cc3[nH]2)ccc1O
IC50 [4]: 2.2 to 21 µM

Structure (SMILES): CN1CCN(c2ccc3nc(-c4ccc(N(C)C)cc4)[nH]c3c2)CC1
IC50 [4]: 2.2 to 21 µM

Structure (SMILES): c1cncc(Cn2cc(Cn3c4ccccc4c4ccccc43)nn2)c1
IC50 [2]: 0.8 µM

Structure (SMILES): c1ccc(-c2nc3ccc(N4CCOCC4)cc3[nH]2)nc1
IC50 [4]: 3.4 to 20 µM

Structure (SMILES): Cc1n[nH]c2c1C(c1ccc(Cl)cc1Cl)C(C#N)=C(N)O2 (centres undefined)
IC50 [2]: 60 to 180 µM

Structure (SMILES): CN1CCN(c2ccc3nc(-c4ccccn4)[nH]c3c2)CC1
IC50 [4]: 2.2 to 21 µM

Structure (SMILES): C[C@H]1O[C@H](O[C@H]2[C@H](O)[C@@H](O)[C@@H](O[C@H]3[C@H](O)[C@@H](O)C(O)O[C@@H]3CO)O[C@@H]2CO)[C@H](O)[C@@H](O)[C@@H]1N[C@H]1C=C(CO)[C@@H](O)[C@H](O)[C@H]1O (some centres undefined) [ACARBOSE]
IC50 [2]: 937 µM

Structure (SMILES): CN1CCN(c2ccc3nc(-c4ccc(O)c(O)c4)[nH]c3c2)CC1
IC50 [4]: 2.2 to 21 µM

Structure (SMILES): Cc1ccc(C(CC(=O)c2ccccc2)C(C(=O)Nc2ccccn2)C(=O)Nc2ccccn2)cc1 (centres undefined)
IC50 [2]: 28 µM

Structure (SMILES): Cc1[nH]nc2c1C(c1ccc(O)c(OCc3ccccc3)c1)C(C#N)=C(N)O2 (centres undefined)
IC50 [2]: 60 to 180 µM

Structure (SMILES): Oc1ccc(-c2nc3ccc(N4CCOCC4)cc3[nH]2)cc1O
IC50 [4]: 3.4 to 20 µM

Structure (SMILES): CN1CCN(c2ccc3nc(-c4ccc(Cl)cc4)[nH]c3c2)CC1
IC50 [4]: 2.2 to 21 µM

Structure (SMILES): CC[C@]1(O)C[C@H]2CN(CCc3c([nH]c4ccccc34)[C@@](C(=O)OC)(c3cc4c(cc3OC)N(C=O)[C@H]3[C@@](O)(C(=O)OC)[C@H](OC(C)=O)[C@]5(CC)C=CCN6CC[C@]43[C@@H]65)C2)C1 [VINCRISTINE]
Activity (MDA-MB-231): 74.5%

Structure (SMILES): O=C(CC(c1ccc(Br)cc1)C(C(=O)Nc1ccccn1)C(=O)Nc1ccccn1)c1ccccc1 (centres undefined)
IC50 [2]: 12 µM

Reference: ChEMBL document CHEMBL4304757, “Synthetic heterocyclic candidates as promising α-glucosidase inhibitors: An overview” (Eur J Med Chem, 2019)
